Results from US5132463A, “1,3-diaryl cyclopentanes and derivatives thereof as PAF antagonists” (Merck & Co., Inc., priority 1991, dated 1992).
“And” between values parts separate entries of the source, which are not always exact repeats. Equal entries are not always repeated. Where two headings read alike, the source gives them in different places.

Target: T1, PAF receptor (specific receptor binding site on rabbit platelet plasma membranes) (Oryctolagus cuniculus, UniProt G1TEI7)
T1 construct: 100 μg of the platelet plasma membrane suspension; from tissue; host or cells: rabbit platelet plasma membranes
Test: inhibition of 3H-PAF binding to rabbit platelet plasma membrane
Settings: for IC50: 3H-PAF, pH 7.5, 0° C.
Experimental: They inhibit in vitro PAF-induced functions in both the cellular and tissue levels by changing the PAF binding to its specific receptor site. This ability to inhibit the PAF binding to its specific receptor binding site on rabbit platelet plasma membranes was measured by an assay recently developed by us.
The inhibition of H^3 -PAF binding to the rabbit platelet plasma membrane by a PAF antagonist of Formula (I) was determined by isotopic labeling and filtration techniques. Generally, a series of Tris-buffered solutions of the selected antagonist at predetermined concentrations were prepared. Each of these solutions contains 1 pmole of ^3 H-PAF, a known amount of the test antagonist, and a sufficient amount of the pH 7.5 Tris-buffer solution (10 mM Tris, 0.25% bovine serum albumin, and 150 mM NaCl per ml water) to make the final volume of 1 ml. After adding into a set of test tubes each with 100 μg of the platelet plasma membrane suspension (S. B. Hwang, et al., Biochemistry, Vol. 22, pp. 4756-4763, 1983) and one of the Tris-buffer solutions described above, the resulting mixture in each test tube was incubated at 0° C. for about one hour or until the reaction was complete. Two control samples, one of which (C1) contains all the ingredients described above except the antagonist and the other (C 2) contains C1 plus a 1000-fold excess of unlabeled PAF, were also prepared and incubated simultaneously with the test samples. After the incubation was completed, the contents of each test tube were filtered under vacuo through a Whatman GF/C fiberglass filter and the residue washed rapidly several times with a total of 20 ml cold (0°-5° C.) Tris-buffer solution. Each washed residue was then suspended in 10 ml scintillation solution (Aquasol 2, New England Nuclear, Conn.) and the radioactivity was counted in a Packard Tri-Carb 460CD Liquid Scintillation System. Defining the counts from a test sample as "Total binding with antagonist"; the counts from the control sample C1, as "Total binding C1 "; and the counts from the control sample C2 as "non-specific binding C2 ", the percent inhibition of each test antagonist can be determined by the following equation: [formula]

[1] = Table (A), at 300 nM, read-out: PAF Receptor Binding Inhibition, Percent Inhibition

T1 sequence (G1TEI7 1-342): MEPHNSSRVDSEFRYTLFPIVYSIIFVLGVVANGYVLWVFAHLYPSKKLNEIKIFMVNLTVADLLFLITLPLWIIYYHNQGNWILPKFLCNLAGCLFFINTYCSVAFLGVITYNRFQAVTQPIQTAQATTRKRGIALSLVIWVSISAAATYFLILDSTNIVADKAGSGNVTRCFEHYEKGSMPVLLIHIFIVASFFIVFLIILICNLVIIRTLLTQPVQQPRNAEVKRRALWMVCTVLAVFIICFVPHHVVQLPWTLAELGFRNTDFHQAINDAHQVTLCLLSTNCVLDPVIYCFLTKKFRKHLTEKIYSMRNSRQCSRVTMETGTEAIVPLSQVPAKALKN

| Compound | IC50 (Table (A)) | other results |
| --- | --- | --- |
| COc1cc([C@@H]2CC[C@@H](c3cc(OC)c(OC)c(OC)c3)C2O)cc(OC)c1OC (relative stereo) [OH, trans-2,5-bis(3,4,5-trimethoxyphenyl)cyclopentanol] | – | inhibition at 0.5 µM (Table (A), at 500 nM, read-out: PAF Receptor Binding Inhibition, Percent Inhibition): 84% |
| C#CCOC1[C@H](c2cc(OC)c(OC)c(OC)c2)CC[C@H]1c1cc(OC)c(OC)c(OC)c1 (relative stereo) | 1 nM | – |
| COc1cc([C@@H]2CC[C@@H](c3cc(OC)c(OC)c(OC)c3)C2OCc2ccccc2)cc(OC)c1OC (relative stereo) [OCH2 C6 H5] | 48 nM | – |
| COc1cc([C@@H]2CC[C@@H](c3cc(OC)c(OC)c(OC)c3)C2OC)cc(OC)c1OC (relative stereo) [OCH3, 1α-Methoxy-2α,5β-bis-(3,4,5-trimethoxyphenyl)cyclopentane] | 8.3 nM | – |
| CON=C1[C@@H](c2cc(OC)c(OC)c(OC)c2)CC[C@@H]1c1cc(OC)c(OC)c(OC)c1 (relative stereo) [NOCH3, Trans-2,5-bis(3,4,5-trimethoxyphenyl)cyclopentanone-O-methyloxime] | 5 nM | – |
| COc1cc([C@@H]2CC[C@@H](c3cc(OC)c(OC)c(OC)c3)C2OCC2CC2)cc(OC)c1OC (relative stereo) | 19 nM | – |
| CCOC(=O)COC1[C@H](c2cc(OC)c(OC)c(OC)c2)CC[C@H]1c1cc(OC)c(OC)c(OC)c1 (relative stereo) | 3.6 nM | – |
| COc1cc([C@H]2CC[C@H](c3cc(OC)c(OC)c(OC)c3)C2=NO)cc(OC)c1OC (relative stereo) [NOH, trans-2,5-bis(3,4,5-trimethoxyphenyl)cyclopentanone oxime] | 5.8 nM | – |
| COc1cc([C@@H]2CC[C@@H](c3cc(OC)c(OC)c(OC)c3)C2OC(C)=O)cc(OC)c1OC (relative stereo) [OCOCH3, 1α-acetoxy-2α,5β-bis(3,4,5-trimethoxypheny)cyclopentane] | 100 nM | – |
| CCCOc1c(OC)cc([C@H]2CC[C@H](c3cc(OC)c(OC)c(OC)c3)[C@@H]2OC)cc1C(N)=O (relative stereo) [OCH3, (CO)NH2] | – | IC50 (Table (B)): 124 nM and 47 nM |
| COc1cc([C@@H]2CC[C@@H](c3cc(OC)c(OC)c(OC)c3)C2OCC(=O)O)cc(OC)c1OC (relative stereo) | – | inhibition at 0.3 µM [1]: 16% |
| CCOC1[C@H](c2cc(OC)c(OC)c(OC)c2)CC[C@H]1c1cc(OC)c(OC)c(OC)c1 (relative stereo) | 30 nM | – |
| COCCOC1[C@H](c2cc(OC)c(OC)c(OC)c2)CC[C@H]1c1cc(OC)c(OC)c(OC)c1 (relative stereo) | 100 nM | – |
| COc1cc([C@@H]2CC[C@@H](c3cc(OC)c(OC)c(OC)c3)C2OCCN(C)C)cc(OC)c1OC (relative stereo) | 100 nM | – |
| CCCOc1c(OC)cc([C@@H]2CC[C@@H](c3cc(OC)c(OC)c(OC)c3)[C@@H]2O)cc1SC (relative stereo) [OH, SCH3] | – | PAF Receptor Binding Inhibition, Percent Inhibition (Table (B), at 300 nM, 0.3 µM): 38%; inhibition at 0.3 µM (Table (B), at 300 nM, read-out: PAF Receptor Binding Inhibition, Percent Inhibition): 23% |
| CCCOc1c(Br)cc([C@@H]2CC[C@@H](c3cc(OC)c(OC)c(OC)c3)[C@H]2OC)cc1OC (relative stereo) [OCH3, Br] | – | IC50 (Table (B)): 47 nM |
| COc1cc([C@@H]2CC[C@@H](c3cc(OC)c(OC)c(OC)c3)C2)cc(OC)c1OC (relative stereo) [H, 1α,3β-bis(3,4,5-trimethoxyphenyl)cyclopentane] | 20 nM | – |
| C=CCOC1[C@H](c2cc(OC)c(OC)c(OC)c2)CC[C@H]1c1cc(OC)c(OC)c(OC)c1 (relative stereo) | 4.8 nM | – |
| COc1cc([C@@H]2CC[C@@H](c3cc(OC)c(OC)c(OC)c3)C2OCC(=O)N(C)C)cc(OC)c1OC (relative stereo) | – | inhibition at 0.3 µM [1]: 23% |
| CCCOc1c(OC)cc([C@@H]2CC[C@@H](c3cc(OC)c(OC)c(OC)c3)[C@@H]2OC)cc1[S+](C)[O-] (relative stereo) [OCH3, SOCH3] | – | IC50 (Table (B)): 18 nM and 9.3 nM |
| CCCOC1[C@H](c2cc(OC)c(OC)c(OC)c2)CC[C@H]1c1cc(OC)c(OC)c(OC)c1 (relative stereo) | 30 nM | – |
| CCCOc1c(OC)cc([C@@H]2CC[C@@H](c3cc(OC)c(OC)c(OC)c3)[C@@H]2OC)cc1S(C)(=O)=O (relative stereo) [OCH3, SO2 CH3] | – | IC50 (Table (B)): 4.3 nM and 3.8 nM |
